Values of other authors in patent publication US20230218648A1, “USE OF HUMAN MILK OLIGOSACCHARIDES IN NUTRITIONAL COMPOSITIONS FOR ENHANCING BONE DEVELOPMENT AND/OR BONE STRENGTH” (SOCIETE DES PRODUITS NESTLE S.A., priority 2020, published 2023).

System: osteoclast and osteoblast biology
Conditions: reported by C.A. Cowardin et al., PNAS, 2019, 116

In the case of 2′-fucosyllactose [2′-FL], the changes in bone-biology is given as “failed to elicit changes in bone-biology”.
